From patent US20220274968A1, “Oxazole And Oxadiazole Derivatives Useful As Agonists Of Free Fatty Acid Receptor 1” (GBiotech S.à.r.l., priority 2019, published 2022) come the findings set out here.

Molecules are shown by their SMILES.

For this assay, the system named is C57BI/6N male mice. Put plainly: Oral glucose tolerance test (OGTT) in C57BI/6N male mice. In kind it is in vivo. The conditions noted are these: single peroral dose 60 min before glucose 2 g/kg; Z1558775684 20 mg/kg, Metformin 300 mg/kg; compared with the Vehicle-treated group; 5 mice per group. As for the experimental part:
Values are expressed as means of 5 animals tested. For glucose tolerance test (GTT), mice were orally treated with glucose at dose of 2 g/kg at the dose volume of 10 ml/kg after a 6-hour fasting. Glucose measurements were performed immediately before compound treatment (−60 min), at −30 min, 0 min (before glucose administration), and then 15, 30, 60, 90 and 120 min after glucose administration.
EXAMPLE 87: OGTT TESTING IN C57BI/6N MALE MICE
Each experimental group consisted of five male C57BI/6N mice. Animals were dosed once perorally with 20 mg/kg of tested compound Z1558775684. A control group was dosed with vehicle on the same schedule. Metformin at the dosage of 300 mg/kg was used as reference compound.
Compound Z1558775684 was dissolved/suspended in DMSO-PEG400-physiological saline (20%:50%:30%) at concentration 4 mg/ml. Metformin was dissolved in the same vehicle at concentration 60 mg/ml. The test samples were administered per os in the volume corresponding to 5 ml/kg body weight.
Single doses of test samples were administered 60 min before glucose treatment at 3 p.m.
The blood glucose level was measured after 6-hour fasting using Call Plus glucometer and specific test strips. Blood was obtained from the tail vein by incision of the tail tip, 5-6 μl of blood was used for each assay. […]

Regarding `CCc1nc(N)nc(SCc2ncc(-c3cccc(Cl)c3)o2)n1` [Compound Z1558775684, 4-({[5-(3-chlorophenyl)-1,3-oxazol-2-yl]methyl}sulfanyl)-6-ethyl-1,3,5-triazin-2-amine], the “glucose level during oral glucose tolerance test (OGTT)” value was “Statistically significant decrease in glucose level”. As for `CN(C)C(=N)N=C(N)N` [Metformin], the “glucose level during oral glucose tolerance test (OGTT)” value is “Statistically significant decrease in glucose level”.
